Test results: publication PMC6684085, “Intragenic antimicrobial peptides (IAPs) from human proteins with potent antimicrobial and anti-inflammatory activity” (PLoS ONE, 2019)
Converted amounts (≈) assume the structure as drawn. “Also recorded” adds a separate entry of the source. Ends that are not written are not given here.

Columns and labels:
human red blood cells = format: cell-based
Protocol: (§1) The cytotoxicity of Hs IAPs was performed using human red blood cells in strict accordance with relevant guidelines and regulations (Ethical committee–UnB # 1.939.989 as described elsewhere. Cytotoxic effect of IAPs was evaluated by MTT assay and flow cytometry analysis using murine peritoneal macrophages from C57BL/6 mice or a BALB/cN-derived macrophages (J774A.1) cell line. For cell viability assays using MTT, murine peritoneal macrophages from C57BL/6 mice were plated in triplicate wells in 96-well plates at a density of 1.0 × 10^5 cells per well and stimulated or not with different concentrations of Hs IAPs (0.1, 1 and 10 μM) and incubated for 24h. After that, 20μl of a solution of 3-(4,5-Dimethyl-thiazol-2-yl)-2,5-diphenyl-tetrazolium bromide (MTT, Sigma) was added to each well (5 mg/ml of MTT in phosphate buffered saline). The plates were incubated at 37°C for 3 hours and then processed as previously described. Cell death was analysed by annexin V-FITC/PI staining followed by flow cytometry analysis. Mouse BALB/cN macrophage (J774A.1) cell line was acquired from ATCC (number TIB-67) and cultured in Dulbecco’s Modified Eagle’s Medium (DMEM) (Life) supplemented with 10% heat inactivated foetal bovine serum (Life) and 1% antibiotic solution (100 IU/mL penicillin/100 μg/mL streptomycin, Life) at 37°C, 5% CO2, in a humidified atmosphere. J774A.1 cells were seeded into 96-well culture plates in DMEM culture medium for 2 h at 37°C and 5% CO2 in a humid atmosphere at a density of 1.0 × 10^5 cells, and stimulated or not with different concentrations of Hs IAPs (0.1, 1 and 10 μM). The plates were incubated for 24 h, washed in PBS, and resuspended in 100 μL of binding buffer (10 mM HEPES/NaOH pH 7.4, 140 mM NaCl, ad 2.5 mM CaCl2). Cells were then treated with 2 μL of annexin-V FITC in Aqueous buffered solution containing BSA and ≤0.09% sodium azide (BD Pharmingen) and 2 μL of propidium iodide (PI, 50 μg/mL) for 15 min in the dark at room temperature. Next, 100 μL binding buffer was added and a total of 20,000 events were collected per sample in flow cytometer (BD LSRFortessa).

Candida albicans 90028 = test: microbe, parasite or virus in culture; format: cell-based; settings: ATCC90028, ATCC 90028, peptides 0.5 to 256 μM, 100 μL, 96-well, no cells seen by optical microscopy, three biological repetitions with 2 technical replicates, mean ± SD, read-out: Minimum inhibitory concentration (μM ± SD) C. albicans
Protocol: (§2) Protocols M7-A10 [46], M27-A3 [47] and M38-A2 [48] from Clinical & Laboratory Standards Institute (CLSI) were used to test the susceptibility of bacteria, yeasts and filamentous fungi to the Hs IAPs. Briefly, Hs IAPs ranging from 0.5 to 256 μM were tested against microorganisms in a final volume of 100μL. Tests were performed in polystyrene flat-bottom 96 wells microplates and each test consisted of three biological repetitions with 2 technical replicates each. The minimum inhibitory concentration (MIC) was defined as the concentration that no cells/hyphae were detected when visualized by optical microscopy. ATCC reference strains: Candida albicans 90028, Staphylococcus aureus 25923, Pseudomonas aeruginosa 27853, Trichophyton rubrum 28189, Staphylococcus epidermidis 12228.

[1] = test system: Staphylococcus aureus 25923; test: microbe, parasite or virus in culture; format: cell-based; settings: ATCC 25923, peptides 0.5 to 256 μM, 100 μL, 96-well, three biological repetitions with 2 technical replicates, mean ± SD
Protocol: as §2

[2] = test system: Staphylococcus epidermidis 12228; test: microbe, parasite or virus in culture; format: cell-based; settings: ATCC 12228, peptides 0.5 to 256 μM, 100 μL, 96-well, three biological repetitions with 2 technical replicates, mean ± SD
Protocol: as §2

[3] = test system: mouse BALB/cN macrophage (J774A.1) cell line; test: Annexin-V FITC / propidium iodide staining by flow cytometry; format: cell-based; settings: 24 h exposure at 0.1, 1.0 and 10 μM; flow cytometry, 20,000 events/sample
Protocol: (§3) Fig 4 a. Cytotoxicity evaluation in the mouse BALB/cN macrophage (J774A.1) cell line after exposure for 24 h at 0.1, 1.0 and 10 μM concentrations. DMEM was used as a negative control. Cells were analyzed by flow cytometry (20,000 events/sample). b. Evaluation of the cell death mechanism mediated by Hs02 in J774A.1 cells after exposure for 24 h at 0.1, 1.0 and 10 μM concentrations using annexin-V FITC (apoptosis marker) and propidium iodide (PI, necrosis marker) staining. Cells were analyzed by flow cytometry (20,000 events/sample). The values are expressed as mean ± SEM. * p<0.05 and **** p<0.0001 versus DMEM untreated control group. # p<0.05 versus apoptosis staining for each respective group.
The cytotoxicity of Hs IAPs was performed using human red blood cells in strict accordance with relevant guidelines and regulations (Ethical committee–UnB # 1.939.989 as described elsewhere. Cytotoxic effect of IAPs was evaluated by MTT assay and flow cytometry analysis using murine peritoneal macrophages from C57BL/6 mice or a BALB/cN-derived macrophages (J774A.1) cell line. For cell viability assays using MTT, murine peritoneal macrophages from C57BL/6 mice were plated in triplicate wells in 96-well plates at a density of 1.0 × 10^5 cells per well and stimulated or not with different concentrations of Hs IAPs (0.1, 1 and 10 μM) and incubated for 24h. […]

[4] = test system: mouse BALB/cN macrophage (J774A.1) cell line; format: cell-based; settings: for Viability of J774A.1 macrophages versus DMEM untreated control: 24 h exposure, peptide at 0.1, 1 and 10 μM, flow cytometry, 20,000 events/sample, p<0.05
Protocol: as §3
as §1, with “J774A.1 cells were seeded into 96-well culture plates in DMEM culture medium for 2 h at 37°C and 5% CO2 in a humid atmosphere at a density of 1.0 × 10^5 cells, and stimulated or not with different concentrations of Hs IAPs (0.1, 1 and 10 μM). The plates were incubated for 24 h, washed in PBS, and resuspended in 100 μL of binding buffer (10 mM HEPES/NaOH pH 7.4, 140 mM NaCl, ad 2.5 mM CaCl2). Cells were then treated with 2 μL of annexin-V FITC in Aqueous buffered solution containing BSA and ≤0.09% sodium azide (BD Pharmingen) and 2 μL of propidium iodide (PI, 50 μg/mL) for 15 min in the dark at room temperature. Next, 100 μL binding buffer was added and a total of 20,000 events were collected per sample in flow cytometer (BD LSRFortessa).” left out

[5] = test system: murine peritoneal macrophages from C57BL/6 mice; test: MTT reduction assay in primary macrophages; format: cell-based, mouse; settings: 24 h incubation, triplicate wells (S1 Fig)
Protocol: as §1, with “J774A.1 cells were seeded into 96-well culture plates in DMEM culture medium for 2 h at 37°C and 5% CO2 in a humid atmosphere at a density of 1.0 × 10^5 cells, and stimulated or not with different concentrations of Hs IAPs (0.1, 1 and 10 μM). The plates were incubated for 24 h, washed in PBS, and resuspended in 100 μL of binding buffer (10 mM HEPES/NaOH pH 7.4, 140 mM NaCl, ad 2.5 mM CaCl2). Cells were then treated with 2 μL of annexin-V FITC in Aqueous buffered solution containing BSA and ≤0.09% sodium azide (BD Pharmingen) and 2 μL of propidium iodide (PI, 50 μg/mL) for 15 min in the dark at room temperature. Next, 100 μL binding buffer was added and a total of 20,000 events were collected per sample in flow cytometer (BD LSRFortessa).” left out

[6] = test system: murine peritoneal macrophages from C57BL/6 mice; test: LPS-induced TNF-α release by ELISA; format: cell-based, mouse; settings: macrophages primed with 500 ng/mL LPS for 4 h, then peptide for 24 h, Hs02 at 0.1, 1 and 10 μM, DS01 at 1 and 10 μM
Protocol: Fig 5 TNF-α secretion and lipid droplet biogenesis evaluation. a. Murine peritoneal macrophages from C57BL/6 mice were pre-treated or not with LPS (500 ng/ml) for 4h and then stimulated or not with Hs IAPs (0.1, 1.0 and 10 μM), incubated for 24h and TNF-α levels measured by ELISA b. In parallel, murine peritoneal macrophages from C57BL/6 mice were pre-treated or not with LPS (500 ng/ml) for 4h and then stimulated or not with Hs IAPs (0.1 μM), incubated for 24h and lipid droplets were quantitated by flow cytometry (B). The values are expressed as mean ±SEM. * p<0.05 and **** p<0.0001 versus DMEM control group. […] The digits of 121, 119, 364 and 122 are best readings.
The modulation of pro-inflammatory cytokine TNF-α secretion induced by IAPs was evaluated by ELISA. […] Supernatant TNF-α concentration was detected by ELISA with a R&D Systems (USA) kit. […] Plates were read after adding the stop solution at 450nm using SpectraMax M3spectrophotometer (Molecular Devices).
Supplementary file pone.0220656.s004.tif: S3 Fig TNF-α release in murine macrophages. Murine peritoneal macrophages from C57BL/6 mice were pre-treated or not with LPS (500 ng/ml) for 4h and then stimulated or not with the AMP DS01 (10, and 1 μM), incubated for 24h and TNF-α levels measured by ELISA. The values are expressed as mean ±SEM. * p<0.05 and **** p<0.0001 versus DMEM control group. […]

[7] = test system: Pseudomonas aeruginosa 27853; test: microbe, parasite or virus in culture; format: cell-based; settings: ATCC27853, ATCC 27853, peptides 0.5 to 256 μM, 100 μL, 96-well, three biological repetitions with 2 technical replicates, mean ± SD, read-out: Minimum inhibitory concentration (μM ± SD) P. aeruginosa
Protocol: as §2

LKMLGMLFHNIRNILKTV-NH2 [Hs01]
Hemolytic activity SC50 (human red blood cells): > 128 µM

C[C@@H]1[C@H](O)[C@@H](C)/C=C/C=C/C=C/C=C/C=C/C=C/C=C/[C@H](O[C@@H]2O[C@H](C)[C@@H](O)[C@H](N)[C@@H]2O)C[C@@H]2O[C@](O)(C[C@@H](O)C[C@@H](O)[C@H](O)CC[C@@H](O)C[C@@H](O)CC(=O)O[C@H]1C)C[C@H](O)[C@H]2C(=O)O [Amphotericin b]
MIC (Candida albicans 90028): 0.27 µM (≈ 0.25 µg/mL)

CC1(C)S[C@@H]2[C@H](NC(=O)[C@H](N)c3ccccc3)C(=O)N2[C@H]1C(=O)O [Ampicilin]
Minimum inhibitory concentration (μM ± SD) S. aureus [1]: 5.38 ± 0.0 µM (≈ 1.88 µg/mL) | Minimum inhibitory concentration (μM ± SD) S. epidermidis [2]: 43.10 ± 0.0 µM (≈ 15.1 µg/mL)

KWAVRIIRKFIKGFIS-NH2 [Hs02]
Apoptosis (annexin-V FITC) or necrosis (PI) in J774A.1 cells versus DMEM control [3]: did not present significant apoptosis or necrosis; also recorded: No significant apoptosis or necrosis | Hemolytic activity SC50 (human red blood cells): > 128 µM | Viability of J774A.1 macrophages versus DMEM untreated control [4]: did not cause significant (p<0.05) reduction in the viability | Concentration tolerated by the J774A.1 macrophage cell line ([4]; flow cytometry, 24 h, 0.1, 1 and 10 μM tested): ≥ 10 µM

OO [hydrogen peroxide (H2O2), hydrogen peroxide]
Viability of J774A.1 macrophages versus DMEM untreated control [4]: decreased significantly (p<0.05) the cell viability

GFKDLLKGAAKALVKTVLF-NH2 [Asc-8]
Hemolytic activity SC50 (human red blood cells): 32 µM

FLREFHKWIERVVGWLGKVF-NH2 [Hs03]
Hemolytic activity SC50 (human red blood cells): > 128 µM | Concentration that reduced the viability of peritoneal macrophages to 50% [5]: approximately 10 μM

GLWSTIKQKGKEAAIAAAKAAGQAALGAL-NH2 [DS01]
Hemolytic activity SC50 (human red blood cells): > 128 µM | Peptide concentration that inhibits LPS-induced release of TNF-α [6]: > 10 µM

CNC(C)C1CCC(N)C(OC2C(N)CC(N)C(OC3OCC(C)(O)C(NC)C3O)C2O)O1 (centres unmarked) [Gentamicin]
MIC ([1]; Staphylococcus aureus, ATCC25923, read-out: Minimum inhibitory concentration (μM ± SD) S. aureus): 0.26 µM (≈ 0.124 µg/mL) | MIC ([2]; Staphylococcus epidermidis, ATCC12228, read-out: Minimum inhibitory concentration (μM ± SD) S. epidermidis): 0.26 µM (≈ 0.124 µg/mL) | MIC [7]: 0.13 µM (≈ 0.0621 µg/mL)

LFNNYITAALKLLEKLYKV-NH2 [Hs04]
Hemolytic activity SC50 (human red blood cells): 64 µM | Concentration that reduced the viability of peritoneal macrophages to 50% [5]: approximately 10 μM

OC(Cn1cncn1)(Cn1cncn1)c1ccc(F)cc1F [Fluconazol]
MIC (Candida albicans 90028): 1.63 µM (≈ 0.499 µg/mL)
